{"source": "patent US9616010B2", "about": "“Cosmetic composition comprising a ternary lipid association for controlling dryness of the skin” (PIERRE FABRE DERMO-COSMETIQUE, priority 2013, dated 2017)", "key": {"isolated stratum corneum": {"tested_on": "isolated stratum corneum", "settings": "Levi et al., Int J Cosmet Sci. 2010; 32: 276-93; cited from earlier work"}, "[1]": {"tested_on": "isolated stratum corneum (SC) from human skin explants", "assay": "Mechanical stress within isolated SC subjected to dehydration stress in an environmental chamber (substrate curvature)", "source_text": "These elements led the Applicant to use an in vitro model of isolated SC to study changes in mechanical properties as a function of hydration level. Measuring skin tension makes it possible to define a relationship between skin dryness and skin stress, and the appearance of cracks. Moreover, the use of this model makes it possible to know with a high degree of accuracy the effect of active agents on these mechanical measurements and, consequently, on the hydration state of the stratum corneum. (K. Levi, R. J. Weber, J. Q. Do and R. H. Dauskardt. International Journal of Cosmetic Science, 2010, 32, 276-293 Drying stress and damage processes in human stratum corneum) (K. Levi and R. H. Dauskardt. International Journal of Cosmetic Science, 2010, 32, 294-298 Application of substrate curvature method to differentiate drying stresses in topical coatings and human stratum corneum).\nThe mechanical approach used here consists in measuring the mechanical stress produced within SC that has been isolated and subjected to dehydration stress in an environmental chamber.\nThe SC specimen—from human skin explants—was isolated by enzymatic digestion. It was placed on a borosilicate slide to which it naturally adheres.\nThe SC, initially 100% hydrated, is then placed in an atmosphere with 7% air humidity. The SC then undergoes a progressive dehydration, during which measurements of SC tension are taken every 15 minutes for 8 hours using a stress measurement device. […] Given the differences that exist between its mechanical properties and those of the support (the slide), the latter bends. By means of this radius of curvature, measured with a laser interferometer, it is then possible to calculate the state of tension/stress from the Stoney equation. The initial data correspond to a measurement of the variation of the curvature of the unit (borosilicate slide+SC). It is possible to calculate the biomechanical stress parameters of the SC, such as tension, from knowledge of the biomechanical properties of the borosilicate slide, its thickness, and the thickness of the SC (see methodology FIG. 1; and bibliographical reference K. Levi, et al., IJCS 2010).\nThis first kinetics study makes it possible to know the behavior of untreated SC. Next, the unit (SC+slide) is returned to 100% air humidity for 2 hours and then incubated in the various treatments for 5 minutes. A […] film is deposited: using a spiral filmograph for liquid emollients and a slide for creams. At the end of this period the unit is again placed in 7% air humidity for the study of dehydration kinetics until stabilization of the measurements (generally 8 to 12 hours). […]"}}, "data": [{"substance": "isocetyl stearoyl stearate [compound 1]", "values": [{"measurement": "efficacy with respect to the shrinking of the stratum corneum specimen desiccated by a lack of moisture", "setting": "isolated stratum corneum", "result": "good efficacy"}, {"measurement": "maximum stress within the SC", "setting": "[1]; SC pretreated 5 minutes, then 7% air humidity, compared with untreated control, FIG. 3", "result": "momentarily greater than the control"}, {"measurement": "time to reach minimum stress plateau", "setting": "[1]; after the stress starts to fall, 7% air humidity, FIG. 3", "result": 2, "unit": "h"}, {"measurement": "time after which the stress falls", "setting": "[1]; hours of dehydration at 7% air humidity, FIG. 3", "result": 3, "unit": "h"}, {"measurement": "shrinking of the skin induced by drying stress", "setting": "[1]; topical application, during the first 4 hours, FIG. 1", "result": "increases"}]}]}
